PubChem BioAssay AID1996
Converted amounts (≈) assume the structure as drawn.

settings: buffer; pH 7.4; 200.0 µM

| Structure (SMILES) | solubility kinetic [µg/mL] |
| --- | --- |
| N=c1c2c3c(sc2ncn1N)CCCC3 | > 33 |
| CC(=O)N=c1scc(-c2ccccc2)n1-c1cccc(O)c1 | 2.6 (≈ 8.38 µM) |
| O=C(CN1CCCCCC1)Nc1ccc([N+](=O)[O-])cc1Cl | 1.1 (≈ 3.53 µM) |
| Cc1ccc(C(=O)NC2CCCCNC2=O)cc1C (stereo not drawn) | > 39.1 |
| Cc1c(C=O)c2cc(OCc3ccccc3)ccc2n1C | < 0.6 |
| O=S(=O)(Nc1ccc(F)cc1)c1ccc(S(=O)(=O)N2CCOCC2)cc1 | 12.6 (≈ 31.5 µM) |
| CN(C(=O)COc1cccc(C#N)c1)C1CCS(=O)(=O)C1 (stereo not drawn) | > 46.3 |
| Cc1ccc(NC(=O)C[n+]2ccccc2)cc1C.[Cl-] | > 41.5 |
| Cc1cc(=O)oc2cc(OCC(=O)N3CCC(C(N)=O)CC3)ccc12 | > 51.7 |
| COc1cc(OC)c(C(=O)OC(C)C(=O)NCc2ccc3c(c2)OCO3)cc1OC (stereo not drawn) | > 62.6 |
| CCCOc1ccc(C(=O)Nc2ccc3c(c2)OCCO3)cc1 | 1 (≈ 3.19 µM) |
| O=C(Nc1ccccc1OC(F)(F)F)c1ccc([N+](=O)[O-])cc1 | 6.8 (≈ 20.8 µM) |
| CCOc1ccc(CN2C(=O)c3ccccc3C2=O)cc1C(=O)O | > 48.8 |
| O=C1CC(=O)N(c2cccc(F)c2)C(=O)N1 | > 33.3 |
| O=C(NCc1ccc(F)cc1)C1CC(=O)N(C2CCCC2)C1 (stereo not drawn) | > 45.7 |
| COc1ccc(C(=O)N/C(=C\c2ccco2)C(=O)OCc2ccco2)cc1 | > 55.1 |
| O=C(Nc1cccc(F)c1)N1CCN(C(=O)c2ccco2)CC1 | > 47.6 |
| CSCCCN1CCCC(CO)(Cc2ccccc2F)C1 (stereo not drawn) | > 46.7 |
| N#C/C(=C\c1c(F)cccc1Cl)C(=O)NC1CC1 | > 39.7 |
| CCCC12CN3CC(C)(CN(C1)C3c1ccco1)C2=O (stereo not drawn) | 38.9 (≈ 142 µM) |
| N#C/C(=C/c1ccc(O)c(O)c1)C(=O)NCc1ccc(Cl)cc1 | 44.9 (≈ 137 µM) |
| Cc1noc(C)c1COc1cccc(C(=O)Nc2ccc(Br)cc2F)c1 | 9.6 (≈ 22.9 µM) |
| CCC(=O)Nc1nc(NCc2ccccc2OC)n(-c2ccccc2)n1 | > 52.7 |
| O=C(COC(=O)c1ccco1)NCc1ccc(Cl)cc1 | 16.4 (≈ 55.8 µM) |

| Structure (SMILES) | solubility kinetic [µg/mL] |
| --- | --- |
| C[n+]1cc(-c2ccccc2)oc1-c1ccccc1 | 24.4 |
| CC(C)CC(=O)Nc1cccc(-c2nc3ncccc3o2)c1 | 31.8 (≈ 108 µM) |
| NC(=O)c1ccccc1NC(=O)c1cccc(C(=O)Nc2ccccc2C(N)=O)n1 | 5.3 (≈ 13.1 µM) |
| C[n+]1ccc(C(=O)NCc2ccccc2)cc1.[I-] | 39.3 |
| COc1ccc(-c2noc(CCC(=O)NCCc3ccccc3)n2)cc1 | 5.4 (≈ 15.4 µM) |
| CCOC(=O)c1c(NC(=O)NC(C)(C)C)sc2c1CCN(C)C2 | 14.9 (≈ 43.9 µM) |
| CC1CCCN(C(=O)c2ccc([N+](=O)[O-])o2)C1 (stereo not drawn) | > 35.7 |
| Cc1ccccc1OCCCCCCN1CCNCC1.O=C(O)C(=O)O | 49.5 |
| COC(=O)Nc1c(-c2ccccc2)nc2ccc(Cl)cn12 | 2.2 (≈ 7.29 µM) |
| CNS(=O)(=O)c1cccc(C(=O)OCC(=O)NC2CCCC2)c1 | > 51.1 |
| O=C(NCc1cccs1)c1cnc(Cl)c(Cl)c1 | > 43.1 |
| Nc1ncnc2c1ncn2[C@@H]1O[C@H](CO)[C@@H](O)[C@@H]1O | > 40.1 |
| CCc1noc(C)c1C(=O)OCC(=O)Nc1ccc(F)cc1Cl | 10.8 (≈ 31.7 µM) |
| COc1ccc(OC)c(NC(=S)Nc2ccccc2)c1 | > 43.3 |
| O=C1CSC(c2ccccc2[N+](=O)[O-])N1c1ccc(O)cc1 (stereo not drawn) | > 47.4 |
| c1ccc(-n2cc(CN3CCCC3)c(-c3ccc4c(c3)OCO4)n2)cc1 | > 52.1 |
| Cc1ccccc1NC(=O)NCCCN1CCN(C)CC1 | > 43.6 |
| O=[N+]([O-])C(=C1NCCN1)C(Cl)=C(Cl)Cl | > 38.8 |
| NC(=O)C1CCN(CC(=O)Nc2ccccc2N2CCOCC2)CC1 | > 52 |
| CC1CN(C(=O)CCCN2C(=O)c3ccccc3C2=O)CC(C)O1 (stereo not drawn) | > 49.6 |
| COc1ccc(C2C(C#N)=C(N)Oc3cccc(O)c32)cc1 (stereo not drawn) | 9.6 (≈ 32.6 µM) |
| CC(=O)c1cn(C(=O)c2ccc(Cl)cc2)c2ccccc12 | 3.6 (≈ 12.1 µM) |
| O=C(Nc1ccc(C(=O)N2CCCCC2)cc1)c1cccs1 | 35 (≈ 111 µM) |
| CNC(=O)c1cc(C(=O)c2ccc(F)cc2Cl)c[nH]1 | 14.1 (≈ 50.2 µM) |

| Structure (SMILES) | solubility kinetic [µg/mL] |
| --- | --- |
| Cc1cc(C)cc(NC(=S)NC(=O)Cc2ccccc2)c1 | 0.5 (≈ 1.68 µM) |
| COc1ccc2c(=O)c(C(=O)NCc3ccccc3)c[nH]c2c1 | 2.3 (≈ 7.46 µM) |
| Cc1ccc(-c2ccc(/C=N/O)o2)cc1[N+](=O)[O-] | 3.4 (≈ 13.8 µM) |
| Cc1ccc(S(=O)(=O)N2CCC[C@H]2C(=O)OCc2cc(=O)oc3cc(C)ccc23)cc1 | 7.3 (≈ 16.5 µM) |
| CCN(CC)c1ccc(/C=C(/C#N)C(=O)NC(C)C)o1 | 38.6 (≈ 140 µM) |
| C=CCN=C1S/C(=C\c2ccc(Cl)cc2)C(=O)N1CC=C | 2 (≈ 6.27 µM) |
| CCN(C(=O)COC(=O)c1ccccc1OCc1ccc(Cl)cc1)C1CCS(=O)(=O)C1 (stereo not drawn) | 25 (≈ 53.7 µM) |
| C=CCN(CC(=O)NC1CC1)S(=O)(=O)c1cccc(C(F)(F)F)c1 | > 54.4 |
| CCc1cccc(C)c1NC(=O)COC(=O)CC1CCCC1 | 15.7 (≈ 51.7 µM) |
| COc1ccc(CCC(C)NCc2ccc(C(F)(F)F)cc2)cc1 (stereo not drawn) | 30.5 (≈ 90.4 µM) |
| Cc1ccc(OCc2nc(-c3ccccc3)no2)cc1 | 0.4 (≈ 1.5 µM) |
| N#Cc1ccccc1OCC(=O)OCC(=O)c1ccc[nH]1 | 24.9 (≈ 87.6 µM) |
| Cc1ccnc(Nc2nc(-c3ccc(O)cc3O)cs2)c1 | 2 (≈ 6.68 µM) |
| CC(C)(C)c1nc2ccc([N+](=O)[O-])cc2[nH]1 | > 32.9 |
| CC(C)C(=O)N1CCN(c2ccccc2NC(=O)c2ccc(Br)o2)CC1 | 52.2 (≈ 124 µM) |
| O=C(NCC1CCCCC1)c1ccccc1[N+](=O)[O-] | > 39.3 |
| Cc1cc(C)cc(N2C(=O)CC(Sc3ccccc3C(=O)O)C2=O)c1 (stereo not drawn) | 52.4 (≈ 147 µM) |
| COc1ccc(-n2c(O)c(C(C)=NCC3CCCO3)c(=O)[nH]c2=O)cc1 (stereo not drawn) | 51.5 (≈ 143 µM) |
| CCOc1ccc2nc(NC(=O)C3(C)CC3(Br)Br)sc2c1 (stereo not drawn) | 8.4 (≈ 19.3 µM) |
| COC(=O)c1ccccc1NC(=O)c1cc[n+]([O-])cc1 | 36.2 (≈ 133 µM) |
| COc1ccc2oc(C(=O)OCC(=O)NC(=O)c3ccccc3)c(C)c2c1 | 4.5 (≈ 12.2 µM) |
| CC(C)[C@H](NC(N)=O)C(=O)NCCc1ccc(Cl)cc1 | > 44.7 |
| O=C(NC(=S)Nc1ccc(Cl)cc1Cl)C1CC1 | 0.8 (≈ 2.77 µM) |
| CN(C)CCCN=C(NO)c1ccc(Cl)cc1Cl | 40.5 (≈ 140 µM) |

| Structure (SMILES) | solubility kinetic [µg/mL] |
| --- | --- |
| COC(=O)C1C(=O)c2c(C)noc2CC1(C)C (stereo not drawn) | > 35.6 |
| CC(C)CNC(=S)NC(=O)c1csc([N+](=O)[O-])c1 | 2.8 (≈ 9.74 µM) |
| Cc1cc(NC(=O)CSCC(=O)Nc2cc(C(F)(F)F)ccc2N2CCCCC2)no1 | 7.6 (≈ 16.6 µM) |
| CO/N=C(/COc1ccc(F)cc1)c1ccc(OC)cc1 | < 0.6 |
| COc1cc(OC)cc(C(=O)O/N=C(\N)c2cccc(C)c2)c1 | 6.2 (≈ 19.7 µM) |
| COc1ccc(NS(=O)(=O)c2cc(NC(=O)c3ccc(Cl)cc3)ccc2N2CCOCC2)cc1 | 1.5 (≈ 2.99 µM) |
| O=C(NN1CCOCC1)c1cccc(F)c1 | > 33.6 |
| CN(C)CCCNc1nc(-c2ccccc2)c2c(c1C#N)CC(C)(C)OC2 | 47.3 (≈ 130 µM) |
| O=S(=O)(Cc1ccccc1)Nc1cccc(F)c1 | 37.6 (≈ 142 µM) |
| CC(=O)N1CCN(c2ccccc2NC(=O)c2ccc(C#N)cc2F)CC1 | 52.6 (≈ 144 µM) |
| O=C(CCCn1cc([N+](=O)[O-])cn1)NCc1ccccc1 | > 43.2 |
| Cc1cc(C)c(C(=O)O)c(Cl)n1 | > 27.8 |
| COC(=O)Cc1c(O)ccn(Cc2ccc3c(c2)OCO3)c1=O | > 47.6 |
| CC(C)CC(C(=O)Nc1ccccc1)N1C(=O)C2C3C=CC(C3)C2C1=O (stereo not drawn) | > 52.9 |
| CN(C)c1ccc(S(=O)(=O)N2CCC(Cc3ccccc3)CC2)cn1 | 2 (≈ 5.56 µM) |
| COc1ccc(CC(=O)NC(=S)Nc2cccc(CO)c2)cc1 | 49.3 (≈ 149 µM) |
| Cc1nc(NC(=O)COC(=O)C2CC2C)c(Cl)cc1Cl (stereo not drawn) | > 47.6 |
| CC1CN(C(=O)c2cc3cc(Cl)ccc3[nH]2)CC(C)O1 (stereo not drawn) | 24.3 (≈ 83 µM) |
| CCOCCOC(=O)NCCCCCCNC(=O)OCCOCC | 38.2 (≈ 110 µM) |
| CC1(NC(=O)Nc2cccc(Br)c2)CCS(=O)(=O)C1 (stereo not drawn) | > 52.1 |
| Cc1[nH]c2nc3ccccc3n2c(=O)c1CCC(C)C | < 0.2 |
| CC(c1ccccc1)N1C(=O)/C(=C/c2ccncc2)SC1=S (stereo not drawn) | 1.3 (≈ 3.98 µM) |
| CCNC(=O)c1ccccc1-c1nc(-c2ccccc2OC)no1 | 42.3 (≈ 131 µM) |
| Cc1ccccc1C(=O)NCC(=O)N1CCN(c2ccccn2)CC1 | > 50.8 |

| Structure (SMILES) | solubility kinetic [µg/mL] |
| --- | --- |
| O=C(CSc1nc2ccccc2s1)NC1CCCC1 | 38.6 (≈ 132 µM) |
| CC(C)C(=O)NCc1cc(-c2ccc(Cl)cc2)no1 | 3 (≈ 10.8 µM) |
| O=C1COc2ccc(C(=O)NC3CC3)cc2N1 | > 34.8 |
| S=C(NCc1ccc(Cl)cc1)NCc1ccccn1 | 35.1 (≈ 120 µM) |
| Cc1ccc(NS(=O)(=O)N2CCOCC2)cc1 | > 38.4 |
| Cc1ccc(OCc2nc3ccccc3n2C)cc1 | 5.7 (≈ 22.6 µM) |
| CCOC(=O)c1cc(COc2cc(Cl)cc(Cl)c2)on1 | < 0.7 |
| COCCSc1ccccc1C(=O)Nc1ccccc1C#N | > 46.9 |
| COc1ccc(NC(=O)CC(C(=O)O)C(C)c2ccccc2)cc1 (stereo not drawn) | > 49.1 |
| Cn1cc(C=C2C(=O)OC3(CCCCC3)OC2=O)c2ccccc21 | < 0.7 |
| CS(=O)(=O)N(CCc1ccccc1)CC(=O)N1CCCC1 | > 46.6 |
| Cc1cc(NS(=O)(=O)c2ccc3c(c2)OCCO3)no1 | 31.2 (≈ 105 µM) |
| O=C(NCc1ccncc1)c1cc2ccccc2nc1Cl | 43.4 (≈ 146 µM) |
| CC(=O)N(CCCN(C)C)Cc1ccccn1 | 30 (≈ 127 µM) |
| Cc1ccc(N2CC(=O)Nc3c(sc4nc(C)cc(C)c34)C2=O)cc1 | 0.6 (≈ 1.71 µM) |
| CC1(C)CC(=O)C(N=Nc2cccc([N+](=O)[O-])c2)=C(O)C1 | > 43.4 |
| CCOc1ccc(NC(=O)C2C(c3ccccc3)C2(Cl)Cl)cc1 (stereo not drawn) | < 0.8 |
| CN(CC(=O)Nc1ccccc1C(=O)NC1CC1)Cc1ccco1 | > 49.1 |
| O=C(/C=C/c1ccccc1[N+](=O)[O-])c1ccc(F)cc1 | 4.5 (≈ 16.6 µM) |
| CCOc1ncccc1C(=O)Nc1ncc(C)s1 | 15.5 (≈ 58.9 µM) |
| CC1(C)NC(=O)N(CC(=O)N2CCC(Cc3ccccc3)CC2)C1=O | 50.1 (≈ 146 µM) |
| CCC(Oc1ccccc1C)C(=O)N1CCCN(C)CC1 (stereo not drawn) | > 43.6 |
